Each structure is given as a SMILES string. Active and inactive are the calls of the source.

In assay [1] the target is T1, Voltage-dependent T-type calcium channel subunit alpha-1H (Homo sapiens, UniProt O95180). The assay can be described thus: human CACNA1H calcium influx blockade – cell-based, synthetic library set 2, HEK293 HH8, Fluo-4, SAR follow-up (AID 493023). In kind it is functional.
In a further assay the test system is HEK293. Kind of assay: SAR analysis of compounds that are cytotoxic to HEK293 - Set 3. [Related pubchem assays (depositor defined):AID1575, AID1578, AID1848, AID1849, AID2001, AID2333, AID2334, AID2335, AID2337, AID2469]. In kind it is functional, cell-based. The conditions noted are these: Homo sapiens.
For a further assay, the target named is Tumor necrosis factor (Homo sapiens, UniProt P01375). Kind of assay: analog potency on TNFa NF-kB signaling – cell-based, set 3, SAR follow-up (AID 2801). The class given is functional.
Sequence of Tumor necrosis factor (P01375 whole entry, the tested form may be a part): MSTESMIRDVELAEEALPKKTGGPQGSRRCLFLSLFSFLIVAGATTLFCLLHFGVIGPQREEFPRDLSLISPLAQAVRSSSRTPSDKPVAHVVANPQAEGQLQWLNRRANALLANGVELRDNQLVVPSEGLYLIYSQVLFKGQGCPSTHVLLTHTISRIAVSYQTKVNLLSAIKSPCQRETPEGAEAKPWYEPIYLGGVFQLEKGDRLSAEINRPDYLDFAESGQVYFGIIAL
Assay [2] concerns the target Nucleotide-binding oligomerization domain-containing protein 2 (Homo sapiens, UniProt Q9HC29). The assay can be described thus: inhibition of MDP-driven NOD2 NF-kB reporter – cell-based, set 3, SAR follow-up (AID 2799). The class given is functional.
Assay [3] concerns the target T2, Nucleotide-binding oligomerization domain-containing protein 1 (Homo sapiens, UniProt Q9Y239).
T2 sequence (Q9Y239 whole entry): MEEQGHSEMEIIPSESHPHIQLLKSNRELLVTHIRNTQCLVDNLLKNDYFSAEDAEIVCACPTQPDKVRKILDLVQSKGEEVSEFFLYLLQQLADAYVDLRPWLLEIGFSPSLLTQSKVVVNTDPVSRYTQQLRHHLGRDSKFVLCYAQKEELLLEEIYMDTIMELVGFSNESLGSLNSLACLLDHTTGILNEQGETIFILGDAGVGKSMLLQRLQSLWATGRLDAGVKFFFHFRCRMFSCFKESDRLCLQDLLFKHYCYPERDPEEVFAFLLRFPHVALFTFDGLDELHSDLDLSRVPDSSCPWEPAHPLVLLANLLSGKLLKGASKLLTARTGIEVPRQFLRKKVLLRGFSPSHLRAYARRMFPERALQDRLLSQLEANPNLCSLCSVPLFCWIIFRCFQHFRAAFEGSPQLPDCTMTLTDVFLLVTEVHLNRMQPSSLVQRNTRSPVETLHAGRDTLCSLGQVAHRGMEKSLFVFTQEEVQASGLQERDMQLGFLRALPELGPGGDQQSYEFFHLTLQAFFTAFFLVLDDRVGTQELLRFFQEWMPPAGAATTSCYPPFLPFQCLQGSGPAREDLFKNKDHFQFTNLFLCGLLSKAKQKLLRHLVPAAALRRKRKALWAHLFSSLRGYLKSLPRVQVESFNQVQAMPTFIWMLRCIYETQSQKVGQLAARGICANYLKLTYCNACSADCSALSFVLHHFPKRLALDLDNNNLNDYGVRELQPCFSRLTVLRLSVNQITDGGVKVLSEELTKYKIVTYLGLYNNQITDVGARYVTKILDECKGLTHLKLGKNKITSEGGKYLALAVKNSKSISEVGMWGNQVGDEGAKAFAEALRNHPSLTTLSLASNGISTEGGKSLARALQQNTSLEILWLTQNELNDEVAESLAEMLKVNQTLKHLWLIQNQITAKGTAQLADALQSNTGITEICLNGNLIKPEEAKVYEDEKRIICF
The assay can be described thus: SAR analysis of compounds that inhibit NOD1 - Set 3. [Related pubchem assays (depositor defined):AID1566, AID1575, AID1578, AID1849, AID1852, AID2333, AID2335, AID2466]. The class given is functional.

In assay [4] the target is T1, Voltage-dependent T-type calcium channel subunit alpha-1H. The assay can be described thus: inhibition of CACNA1H calcium flux – cell-based, SynthLib3 library, HEK293 Cav3.2, fluorescence (AID 493041). The class given is functional. In general terms: Calcium flux is commonly read through the fluorescence of an indicator in the cells.
Assay [5] in a line: DRD fibroblast viability loss – cell-based, non-viral oncogenic, luminescence, dose response (AID 1934). In kind it is functional. The conditions noted are these: Homo sapiens.
Assay [6] addresses FAD-linked sulfhydryl oxidase ALR (Homo sapiens, UniProt P55789). The assay can be described thus: ALR-catalysed DTT oxidation blockers – biochemical, H2O2 detection, luminescence, cherry-pick, dose response (AID 493248).
For assay [7], the system named is BJ. The assay can be described thus: BJ-TERT fibroblast viability loss – cell-based, RAS-independent, luminescence, dose response (AID 1933). The class given is functional. The conditions noted are these: Homo sapiens.
The subject of assay [8] is BJ. Kind of assay: cells. In kind it is functional, cell-based. The conditions noted are these: Homo sapiens.
Assay [9] concerns BJ. The assay can be described thus: BJ-TERT-LT-ST fibroblast viability loss – cell-based, RAS-independent, luminescence, dose response (AID 1935).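 Also: BJ fibroblasts immortalized with TERT plus LT and ST oncogenes.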 The conditions noted are these: Homo sapiens. The class given is functional.
Assay [10] addresses DNA damage-inducible transcript 3 protein (Mus musculus, UniProt P35639). In kind it is functional, Cricetulus griseus.
In assay [11] the target is T3, Delta-type opioid receptor (Homo sapiens, UniProt P41143). Kind of assay: HTS Image-Based Screen for Agonists of the DOR Receptor. [Related pubchem assays (depositor defined):AID1777, AID1786, AID2133]. In kind it is functional.
T3 sequence (P41143 whole entry): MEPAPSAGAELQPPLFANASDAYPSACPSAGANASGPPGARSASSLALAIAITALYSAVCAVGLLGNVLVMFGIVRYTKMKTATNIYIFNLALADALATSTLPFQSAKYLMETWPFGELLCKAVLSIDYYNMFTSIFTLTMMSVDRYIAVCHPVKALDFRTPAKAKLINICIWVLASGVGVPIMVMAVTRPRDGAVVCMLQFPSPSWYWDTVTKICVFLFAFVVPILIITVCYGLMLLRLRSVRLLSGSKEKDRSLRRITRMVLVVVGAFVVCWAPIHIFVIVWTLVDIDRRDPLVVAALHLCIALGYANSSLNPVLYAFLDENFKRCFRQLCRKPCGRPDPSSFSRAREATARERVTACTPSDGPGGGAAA
The next assay concerns the target Mu-type opioid receptor (Homo sapiens, UniProt P35372). The assay can be described thus: HTS Image-Based Screen for Agonists of the MOR Receptor. [Related pubchem assays (depositor defined):AID1777, AID1785, AID1786, AID2133]. In kind it is functional.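 Also: imaging of beta-arrestin GFP recruitment into spots after receptor activation.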
In assay [12] the target is T4, Kappa-type opioid receptor (Homo sapiens, UniProt P41145). The class given is functional.
T4 sequence (P41145 whole entry): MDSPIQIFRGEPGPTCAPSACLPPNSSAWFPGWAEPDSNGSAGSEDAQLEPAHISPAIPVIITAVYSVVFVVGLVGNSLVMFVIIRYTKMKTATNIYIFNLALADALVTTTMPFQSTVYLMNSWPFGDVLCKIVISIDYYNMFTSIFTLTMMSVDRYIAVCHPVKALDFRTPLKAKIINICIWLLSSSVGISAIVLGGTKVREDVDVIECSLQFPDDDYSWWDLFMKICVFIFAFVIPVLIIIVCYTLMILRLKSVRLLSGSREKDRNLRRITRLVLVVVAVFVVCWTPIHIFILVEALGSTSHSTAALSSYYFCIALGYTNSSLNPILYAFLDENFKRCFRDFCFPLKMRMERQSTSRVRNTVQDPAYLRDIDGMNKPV
Assay [13] concerns the target T4, Kappa-type opioid receptor. In kind it is functional. This is another data set of the same source.
For assay [14], the target named is T3, Delta-type opioid receptor. Kind of assay: HTS Image-Based Screen for Antagonists of the DOR Receptor. [Related pubchem assays (depositor defined):AID1777, AID1785, AID1786, AID2133]. The class given is functional.
The target in a further assay is Melanocortin receptor 4 (Homo sapiens, UniProt P32245). In kind it is functional, cell-based.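 Also: Cell-based assay with luminescence read-out, confirmatory dose-response testing for agonist activity of biased ligands at MC4R; human U2OS cells with tagged receptor and beta-arrestin; potency of agonists that increase receptor coupling to beta-arrestin.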
Sequence of Melanocortin receptor 4 (P32245 whole entry): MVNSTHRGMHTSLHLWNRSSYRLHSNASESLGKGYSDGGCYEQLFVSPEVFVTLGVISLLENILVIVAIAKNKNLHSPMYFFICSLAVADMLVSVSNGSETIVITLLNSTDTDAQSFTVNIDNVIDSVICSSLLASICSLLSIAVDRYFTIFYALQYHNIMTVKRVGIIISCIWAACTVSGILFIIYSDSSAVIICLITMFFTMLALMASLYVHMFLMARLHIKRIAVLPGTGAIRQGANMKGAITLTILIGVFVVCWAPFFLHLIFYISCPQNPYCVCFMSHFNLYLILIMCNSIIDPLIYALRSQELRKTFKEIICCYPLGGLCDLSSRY

T1 sequence (O95180 whole entry): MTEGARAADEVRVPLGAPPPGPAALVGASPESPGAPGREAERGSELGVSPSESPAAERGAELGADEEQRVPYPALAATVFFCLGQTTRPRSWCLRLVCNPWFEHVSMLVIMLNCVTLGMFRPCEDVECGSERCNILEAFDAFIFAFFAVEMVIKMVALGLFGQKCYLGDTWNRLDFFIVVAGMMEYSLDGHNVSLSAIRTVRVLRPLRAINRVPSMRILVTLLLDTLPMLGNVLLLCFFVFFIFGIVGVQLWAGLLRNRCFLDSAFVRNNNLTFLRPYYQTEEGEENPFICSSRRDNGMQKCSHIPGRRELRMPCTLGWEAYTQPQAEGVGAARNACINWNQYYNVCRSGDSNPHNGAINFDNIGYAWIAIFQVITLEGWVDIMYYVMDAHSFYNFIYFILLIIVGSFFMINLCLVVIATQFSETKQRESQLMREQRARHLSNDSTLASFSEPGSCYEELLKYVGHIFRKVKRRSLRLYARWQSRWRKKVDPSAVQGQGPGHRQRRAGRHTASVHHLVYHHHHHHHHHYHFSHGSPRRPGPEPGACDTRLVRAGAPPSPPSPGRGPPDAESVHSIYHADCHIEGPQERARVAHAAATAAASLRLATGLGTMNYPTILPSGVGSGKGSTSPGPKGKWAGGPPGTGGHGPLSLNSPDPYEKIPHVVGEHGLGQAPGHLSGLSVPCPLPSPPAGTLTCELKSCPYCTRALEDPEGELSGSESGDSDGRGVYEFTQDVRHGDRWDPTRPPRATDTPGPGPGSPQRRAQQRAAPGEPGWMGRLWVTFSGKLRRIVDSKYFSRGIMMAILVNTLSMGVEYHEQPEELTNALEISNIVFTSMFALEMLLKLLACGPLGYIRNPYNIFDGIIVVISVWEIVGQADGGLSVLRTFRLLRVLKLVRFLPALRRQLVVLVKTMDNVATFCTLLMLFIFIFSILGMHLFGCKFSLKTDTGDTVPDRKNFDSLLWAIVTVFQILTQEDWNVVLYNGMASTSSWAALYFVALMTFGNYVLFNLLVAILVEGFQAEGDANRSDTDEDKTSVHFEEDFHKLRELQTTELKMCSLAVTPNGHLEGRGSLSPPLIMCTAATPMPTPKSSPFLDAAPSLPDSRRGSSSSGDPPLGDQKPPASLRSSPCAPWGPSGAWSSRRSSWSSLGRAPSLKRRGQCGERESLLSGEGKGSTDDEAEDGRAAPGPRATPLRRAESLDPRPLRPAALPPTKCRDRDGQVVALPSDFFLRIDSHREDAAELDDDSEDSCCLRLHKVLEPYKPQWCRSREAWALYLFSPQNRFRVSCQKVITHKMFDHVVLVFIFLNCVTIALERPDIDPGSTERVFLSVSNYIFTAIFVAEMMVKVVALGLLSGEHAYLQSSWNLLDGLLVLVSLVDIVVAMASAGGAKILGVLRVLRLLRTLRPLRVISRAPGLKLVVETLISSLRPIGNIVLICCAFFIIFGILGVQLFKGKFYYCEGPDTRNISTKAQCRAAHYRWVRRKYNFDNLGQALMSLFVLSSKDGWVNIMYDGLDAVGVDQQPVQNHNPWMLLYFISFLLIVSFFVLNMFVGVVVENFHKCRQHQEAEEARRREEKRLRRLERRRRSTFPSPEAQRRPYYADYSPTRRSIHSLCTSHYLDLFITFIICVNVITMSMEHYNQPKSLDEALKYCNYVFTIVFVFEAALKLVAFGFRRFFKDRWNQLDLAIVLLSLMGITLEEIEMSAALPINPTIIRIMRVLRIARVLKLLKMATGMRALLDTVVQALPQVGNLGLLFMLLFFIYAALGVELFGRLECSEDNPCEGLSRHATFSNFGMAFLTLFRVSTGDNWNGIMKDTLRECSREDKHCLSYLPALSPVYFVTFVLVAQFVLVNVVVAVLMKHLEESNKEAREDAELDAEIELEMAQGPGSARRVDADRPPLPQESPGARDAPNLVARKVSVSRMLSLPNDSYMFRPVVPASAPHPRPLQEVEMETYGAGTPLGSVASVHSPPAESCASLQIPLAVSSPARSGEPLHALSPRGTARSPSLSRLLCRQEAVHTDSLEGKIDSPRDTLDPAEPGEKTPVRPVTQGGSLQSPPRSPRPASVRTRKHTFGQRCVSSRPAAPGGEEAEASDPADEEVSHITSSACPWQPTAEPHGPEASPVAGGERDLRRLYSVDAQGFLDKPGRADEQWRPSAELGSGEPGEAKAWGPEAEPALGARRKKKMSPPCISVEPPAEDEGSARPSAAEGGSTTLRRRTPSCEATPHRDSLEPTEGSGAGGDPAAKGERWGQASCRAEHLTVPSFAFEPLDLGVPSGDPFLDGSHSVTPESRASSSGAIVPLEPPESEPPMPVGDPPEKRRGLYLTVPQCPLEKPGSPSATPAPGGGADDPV
Sequence of FAD-linked sulfhydryl oxidase ALR (P55789 whole entry): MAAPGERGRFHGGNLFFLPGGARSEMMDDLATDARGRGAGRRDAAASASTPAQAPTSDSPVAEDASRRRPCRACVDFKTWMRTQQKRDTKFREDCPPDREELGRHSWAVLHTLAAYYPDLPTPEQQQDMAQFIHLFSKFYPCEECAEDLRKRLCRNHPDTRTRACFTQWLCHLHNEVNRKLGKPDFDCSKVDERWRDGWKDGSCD
Sequence of Nucleotide-binding oligomerization domain-containing protein 2 (Q9HC29 whole entry, the tested form may be a part): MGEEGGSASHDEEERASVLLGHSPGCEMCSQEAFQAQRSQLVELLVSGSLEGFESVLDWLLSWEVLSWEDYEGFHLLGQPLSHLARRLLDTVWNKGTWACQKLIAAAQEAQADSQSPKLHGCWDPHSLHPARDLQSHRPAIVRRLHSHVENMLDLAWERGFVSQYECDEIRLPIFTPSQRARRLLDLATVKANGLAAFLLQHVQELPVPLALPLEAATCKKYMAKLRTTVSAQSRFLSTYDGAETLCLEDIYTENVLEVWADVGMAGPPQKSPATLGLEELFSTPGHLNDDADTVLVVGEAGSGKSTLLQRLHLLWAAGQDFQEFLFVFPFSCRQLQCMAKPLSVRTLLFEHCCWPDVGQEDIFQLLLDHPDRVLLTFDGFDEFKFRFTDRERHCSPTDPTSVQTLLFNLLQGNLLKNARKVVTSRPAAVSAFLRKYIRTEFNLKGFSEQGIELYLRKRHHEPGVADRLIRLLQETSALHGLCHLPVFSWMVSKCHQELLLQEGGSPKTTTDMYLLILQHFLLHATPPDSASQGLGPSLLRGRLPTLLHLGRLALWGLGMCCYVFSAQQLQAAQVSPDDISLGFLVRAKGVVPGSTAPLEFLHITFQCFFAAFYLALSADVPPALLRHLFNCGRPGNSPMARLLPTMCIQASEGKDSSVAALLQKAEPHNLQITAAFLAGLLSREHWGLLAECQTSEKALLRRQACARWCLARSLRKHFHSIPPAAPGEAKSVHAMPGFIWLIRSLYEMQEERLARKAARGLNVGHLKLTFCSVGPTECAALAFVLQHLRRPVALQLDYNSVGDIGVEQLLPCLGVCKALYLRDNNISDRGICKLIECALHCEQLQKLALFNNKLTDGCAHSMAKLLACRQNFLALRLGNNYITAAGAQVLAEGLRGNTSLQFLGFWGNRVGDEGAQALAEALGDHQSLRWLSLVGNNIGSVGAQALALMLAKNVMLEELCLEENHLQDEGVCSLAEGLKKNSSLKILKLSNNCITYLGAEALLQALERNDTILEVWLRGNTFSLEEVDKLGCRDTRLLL

Usually EC50 stands for the concentration at which the effect is half-maximal. In the case of `O=C(COc1ccc(F)cc1Cl)N[C@@H]1CCCN(Cc2ccccc2)C1`, the EC50 in assay [1] is 10 µM (active).

What is called IC50 is the point on the concentration scale where inhibition reaches its midpoint. On to `CC(C)C(=O)N(C)C(c1ccccc1)c1c[nH]c2ccccc12` (stereo not drawn), for which the IC50 (with HEK293; at Tumor necrosis factor; in assay [2]; in [3]) was > 20 µM (inactive) each time.

As for `CCC(C)CN1CCC[C@H](NC(=O)COc2ccc(F)c(Cl)c2)C1` (stereo partly drawn), in [4], the EC50 is 10 µM (active).

Usually AC50 stands for the concentration giving half of the maximal activity seen. For `COc1ccc(N/N=C(\C=N\O)C(=O)c2ccc(OC)cc2)cc1`, the EC50 was 1.15 µM (active) in assay [5], 1.56 µM (inconclusive) in the assay on BJ [7], 49 µM (active) in the assay with BJ [8] and 2.41 µM (inconclusive) with BJ [9]. Besides, the AC50 in [6] is 0.009 µM (active). The “Absolute IC50 (CHOP)” value in assay [10] is 10 µM.

Regarding `Nc1ccc(C2(c3ccc(N)cc3)c3ccccc3-c3ccccc32)cc1`, the EC50 was > 32 µM (inactive) in [11]; > 32 µM (inactive) on Mu-type opioid receptor; 8.41 µM in assay [12]; above 35 µM in [13]; > 89.2 µM (inactive) at Melanocortin receptor 4. Further, the IC50 in assay [14] was > 32 µM (inactive).

Source of the values: ChEMBL document CHEMBL1201862, “PubChem BioAssay data set” (2004).
